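Cultured in 96-well plates, cells were exposed to test compound for 48 hours across five concentrations. At the GI50, growth is halved.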 Calls of active or inactive are those of the source. Cut-off read from the data, not from the text of the source: active = GI50 up to about 1.1 µM and inactive = higher. Where only a bound is given, the exact number is not on record here.

Common to all, as to assay: NCI tumour cell line growth inhibition, 48 h
For test [1], the system named is OVCAR-4.
Test [2] deals with NCI-H23.
The subject of test [3] is SK-OV-3.
Test [4] has as its system K562.
For test [5], the system named is RPMI-8226.
Test [6] deals with HOP-62.
Test [7] concerns OVCAR-3.
Test [8] concerns SK-MEL-2.
For test [9], the system named is M19-MEL.
The subject of test [10] is SR.
For test [11], the system named is UACC-257.
The subject of test [12] is UO-31.
Test [13] has as its system RXF 393.
Test [14] relates to SF-268.
Test [15] has as its system EKVX.
Test [16] relates to ACHN.
Test [17] relates to U-251.
Test [18] concerns NCI-H226.
Test [19] deals with IGROV-1.

In the case of `COC(=O)C1=C(c2cc(OC)c(OC)c(OC)c2)OC(c2ccc(OC)c(OC)c2)C1` (configuration not stated), the GI50 in test [1] was 47.2 µM (inactive); in test [2], 78.2 µM (inactive); in test [3], 40.5 µM (inactive); in [4], 45.1 µM (inactive); in [5], 75.2 µM (inactive); in [6] it was 59.3 µM (inactive). The GI50 in test [7] is 38.6 µM (inactive); in test [8], 61.2 µM (inactive); in test [9], 43.3 µM (inactive); in [10] it was 51.6 µM (inactive); in test [11], 40.6 µM (inactive); in test [12], 38.9 µM (inactive). The GI50 in test [13] was 35.9 µM (inactive); in test [14] it was 55.8 µM (inactive); in test [15] it was > 100 µM (inactive); in test [16], 51.2 µM (inactive); in test [17], 42 µM (inactive); in [18], 96.6 µM (inactive). The GI50 in test [19] was 61.1 µM (inactive).
As to `COc1ccc2ccccc2c1CN1CCOCCOCCN(Cc2c(OC)ccc3ccccc23)CCOCCOCC1`, the GI50 in [1] was > 100 µM (inactive); in test [2] it was > 75.3 µM (inactive); in test [3], > 100 µM (inactive); in test [4], > 25.6 µM (inactive); in [5], 10.8 µM (inactive); in test [6] it was > 100 µM (inactive). Moreover, the GI50 in [7] is 16.7 µM (inactive); in [8] it was 46.3 µM (inactive); in test [9], > 81.8 µM (inactive); in [10], 0.514 µM (active); in test [11], 45.2 µM (inactive); in test [12] it was > 100 µM (inactive). In addition, the GI50 was > 100 µM (inactive) in test [13]; > 80.5 µM (inactive) in test [14]; > 100 µM (inactive) in [15]; > 100 µM (inactive) in [16]; > 93.3 µM (inactive) in test [17]; 99.3 µM (inactive) in [18]. The GI50 in test [19] was > 100 µM (inactive).
Regarding `CC1(C2CCC3(C)OC3C2)CO1` (configuration not stated), the GI50 in [1], in [2], in test [3], in test [4], in [5] and in [6] was > 100 µM (inactive) throughout. Also, the GI50 in test [7], in test [8], in test [9], in test [10], in test [11] and in test [12] was > 100 µM (inactive) in each case. In addition, the GI50 in test [13], in test [14], in test [15], in [16], in [17] and in [18] was > 100 µM (inactive) each time. Further, in [19], the GI50 is > 100 µM (inactive).
